From US4264577A, “Contraceptive methods and compositions” (Eli Lilly and Company, priority 1980, dated 1981)

What was measured:
[1] = test system: mice; conditions: I.P. (mice); cited from earlier work
[2] = test system: virgin dutch belted female rabbit; experiment: Antifertility effect by intravaginal administration (K-Y jelly mixture); type: in vivo; conditions: 1 ml of K-Y jelly mixed with equal volume of 10 mg./ml. solution, 4 animals
Description: Equal volumes of K-Y-jelly® and either Ca^++ free Ringer's solution or a 10 mg./ml. solution of the compound to be tested in Ca^++ free Ringer's solution are well mixed. One milliliter of this is placed into the vagina of a virgin dutch belted female rabbit using a syringe. The female is then immediately bred to a fertile buck. The female is injected I.V. with […] of human chorionic gonadotrophin to assure a good ovulation rate.
After approximately 14 days the females are sacrificed by cervical dislocation and the genital system examined for the number of embryos.

[3] = Drug release rate in vitro from dimethylpolysiloxane rubber rod, Method B (water, methylene blue method); type: physicochemical; conditions: rod 341.4 mg, 10% W/W
Description: A dimethylpolysiloxane rubber rod (3 cm. long, 3 mm. diameter) weighing 341.4 mg. and containing 10% (W/W) of dispersed sodium n-tetradecyl sulfate (prepared by Example 3, Method B, lot no. 225-1) is placed in a container and is covered with 10 ml. of water. The rod and the water are incubated together at 37° C. for a seven-day period, after which the water is removed. The sodium n-tetradecyl sulfate in the water is determined by the methylene blue method as described by K. Hiyashi, Analytical Biochemistry, 67, 503 (1975).
The above procedure may be repeated at 7-day intervals by adding fresh water to the rod after each removal of water for assay. Table 5, below, gives the results of a test performed as above-described for 140 days.

[4] = test system: female Dutch belted rabbits; experiment: Efficacy of a vaginal suppository in female rabbits; type: in vivo, rabbit; conditions: 100 mg. PEG suppository with 1 mg. compound, 15 minutes before breeding; 6 animals; after 12 days
Description: Suppositories weighing 100 mg. are made to contain 1 mg. of sodium n-tetradecyl sulfate in a vehicle consisting of 35% polyethylene glycol 400, 35% polyethylene glycol 1540, and 30% polyethylene glycol 4000. A suppository is placed in the vagina of each of six female Dutch belted rabbits. After 15 minutes, each rabbit is bred to a buck of proven fertility and is injected with 100 I.U. of human chorionic gonadotropin. Each of six control animals are similarly treated using identical 100 mg. suppositories made from the same vehicle without the active compound. The animals are sacrificed after 12 days and are examined for embryos.

Q: For `CCCCCCCCCCCCCCOS(=O)(=O)[O-].[Na+]` [n-tetradecyl, sodium n-tetradecyl sulfate], which LD50 [1] is on record?
A: 342 mg/kg

Q: And the “Avg. No. of Embryos per animal” value [2]?
A: 0

Q: What about the No. of embryos [2] of the same compound?
A: 0

Q: What about the “Amount of sodium n-tetradecyl sulfate released Per day Calc.” value ([3]; Day 7) of the same compound?
A: 1.3 µg

Q: What about the “Amount of sodium n-tetradecyl sulfate released Per 7 days” value ([3]; Day 7, 10 ml water 37° C.) of the same compound?
A: 9 µg

Q: What about the “Amount of sodium n-tetradecyl sulfate released Per 7 days” value ([3]; Day 14) of the same compound?
A: 1.9 µg

Q: What about the “Amount of sodium n-tetradecyl sulfate released Per day Calc.” value ([3]; Day 14) of the same compound?
A: 0.3 µg

Q: What about the “Amount of sodium n-tetradecyl sulfate released Per 7 days” value ([3]; Day 21) of the same compound?
A: 34.2 µg

Q: And the “Amount of sodium n-tetradecyl sulfate released Per day Calc.” value ([3]; Day 21)?
A: 4.9 µg

Q: And the “Amount of sodium n-tetradecyl sulfate released Per 7 days” value ([3]; Day 28)?
A: 160 µg

Q: And the “Amount of sodium n-tetradecyl sulfate released Per day Calc.” value ([3]; Day 28)?
A: 22.8 µg

Q: And the “Amount of sodium n-tetradecyl sulfate released Per 7 days” value ([3]; Day 35)?
A: 290 µg

Q: What about the “Amount of sodium n-tetradecyl sulfate released Per day Calc.” value ([3]; Day 35) of the same compound?
A: 41.4 µg

Q: What about the “Amount of sodium n-tetradecyl sulfate released Per 7 days” value ([3]; Day 42) of the same compound?
A: 144 µg

Q: And the “Amount of sodium n-tetradecyl sulfate released Per day Calc.” value ([3]; Day 42)?
A: 20.6 µg

Q: And the “Amount of sodium n-tetradecyl sulfate released Per 7 days” value ([3]; Day 49)?
A: 947 µg

Q: And the “Amount of sodium n-tetradecyl sulfate released Per day Calc.” value ([3]; Day 49)?
A: 135.3 µg

Q: And the “Amount of sodium n-tetradecyl sulfate released Per 7 days” value ([3]; Day 56)?
A: 133 µg

Q: And the “Amount of sodium n-tetradecyl sulfate released Per day Calc.” value ([3]; Day 56)?
A: 19 µg

Q: And the “Amount of sodium n-tetradecyl sulfate released Per 7 days” value ([3]; Day 63)?
A: 111 µg

Q: What about the “Amount of sodium n-tetradecyl sulfate released Per day Calc.” value ([3]; Day 63) of the same compound?
A: 16 µg

Q: What about the “Amount of sodium n-tetradecyl sulfate released Per 7 days” value ([3]; Day 70) of the same compound?
A: 333 µg

Q: And the “Amount of sodium n-tetradecyl sulfate released Per day Calc.” value ([3]; Day 70)?
A: 47.5 µg

Q: What about the “Amount of sodium n-tetradecyl sulfate released Per 7 days” value ([3]; Day 77) of the same compound?
A: 111 µg

Q: What about the “Amount of sodium n-tetradecyl sulfate released Per day Calc.” value ([3]; Day 77) of the same compound?
A: 16.0 µg

Q: And the “Amount of sodium n-tetradecyl sulfate released Per 7 days” value ([3]; Day 84)?
A: 0 µg

Q: What about the “Amount of sodium n-tetradecyl sulfate released Per day Calc.” value ([3]; Day 84) of the same compound?
A: 0 µg

Q: What about the “Amount of sodium n-tetradecyl sulfate released Per 7 days” value ([3]; Day 91) of the same compound?
A: 105 µg

Q: What about the “Amount of sodium n-tetradecyl sulfate released Per day Calc.” value ([3]; Day 91) of the same compound?
A: 15 µg

Q: What about the “Amount of sodium n-tetradecyl sulfate released Per 7 days” value ([3]; Day 98) of the same compound?
A: 644 µg

Q: What about the “Amount of sodium n-tetradecyl sulfate released Per day Calc.” value ([3]; Day 98) of the same compound?
A: 92 µg

Q: What about the “Amount of sodium n-tetradecyl sulfate released Per 7 days” value ([3]; Day 105) of the same compound?
A: 1477 µg

Q: And the “Amount of sodium n-tetradecyl sulfate released Per day Calc.” value ([3]; Day 105)?
A: 211 µg

Q: What about the “Amount of sodium n-tetradecyl sulfate released Per 7 days” value ([3]; Day 112) of the same compound?
A: 430 µg

Q: What about the “Amount of sodium n-tetradecyl sulfate released Per day Calc.” value ([3]; Day 112) of the same compound?
A: 61.4 µg

Q: What about the “Amount of sodium n-tetradecyl sulfate released Per 7 days” value ([3]; Day 119) of the same compound?
A: 600 µg

Q: And the “Amount of sodium n-tetradecyl sulfate released Per day Calc.” value ([3]; Day 119)?
A: 85.7 µg

Q: What about the “Amount of sodium n-tetradecyl sulfate released Per 7 days” value ([3]; Day 126) of the same compound?
A: 1500 µg

Q: What about the “Amount of sodium n-tetradecyl sulfate released Per day Calc.” value ([3]; Day 126) of the same compound?
A: 214.3 µg

Q: What about the “Amount of sodium n-tetradecyl sulfate released Per 7 days” value ([3]; Day 133) of the same compound?
A: 2600 µg

Q: What about the “Amount of sodium n-tetradecyl sulfate released Per day Calc.” value ([3]; Day 133) of the same compound?
A: 371 µg

Q: What about the “Amount of sodium n-tetradecyl sulfate released Per 7 days” value ([3]; Day 140) of the same compound?
A: 4000 µg

Q: What about the “Amount of sodium n-tetradecyl sulfate released Per day Calc.” value ([3]; Day 140) of the same compound?
A: 571 µg

Q: And the “Percent of compound released after 140 days” value ([3]; initial amount 34.14 mg.)?
A: 37%

Q: And the “Total amount of compound released after 140 days” value ([3]; initial amount 34.14 mg.)?
A: 12.63 mg

Q: And the “Embryos Per Animal (x + std. dev.)” value [4]?
A: 0.5 ± 1.2

Q: And the “Total No. of embryos” value [4]?
A: 3
